A value given as a limit tells only on which side of the number the result lay.

The results in this text go back to ChEMBL document CHEMBL1157560, “SAR studies on new bis-aryls 5-HT7 ligands: Synthesis and molecular modeling” (Bioorg Med Chem, 2010).

One test deals with 5-hydroxytryptamine receptor 7 (Homo sapiens, UniProt P34969). The experiment in a line: Displacement of [3H]5CT from human cloned 5HT7B receptor expressed in HEK293 cells. In kind it is cell-based. On the technique in general: Displacement assays read how much labelled ligand stays bound in the presence of the test substance.
Sequence of 5-hydroxytryptamine receptor 7 (P34969 whole entry): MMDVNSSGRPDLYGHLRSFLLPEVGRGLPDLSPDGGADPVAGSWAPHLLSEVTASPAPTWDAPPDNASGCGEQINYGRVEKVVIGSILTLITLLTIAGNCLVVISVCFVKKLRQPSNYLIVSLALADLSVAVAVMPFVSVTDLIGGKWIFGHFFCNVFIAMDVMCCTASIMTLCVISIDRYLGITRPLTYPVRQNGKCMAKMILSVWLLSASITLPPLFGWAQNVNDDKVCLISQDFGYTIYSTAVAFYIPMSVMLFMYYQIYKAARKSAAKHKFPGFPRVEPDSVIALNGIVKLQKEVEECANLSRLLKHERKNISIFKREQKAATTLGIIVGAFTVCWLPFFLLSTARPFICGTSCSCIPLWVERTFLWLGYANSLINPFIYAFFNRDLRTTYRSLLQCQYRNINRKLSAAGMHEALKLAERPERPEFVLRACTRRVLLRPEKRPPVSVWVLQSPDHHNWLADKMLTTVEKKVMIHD
In general, Ki refers to the dissociation constant of the complex between target and ligand, obtained from inhibition or displacement. Molecule `COc1cccc(OC)c1-c1ccnc(CCN(C)C)n1` came in with a Ki of 1.48 µM.

As for `CCCN(CCC)[C@H]1COc2c(cccc2-c2ccccc2)C1`, the affinity, expressed as Ki, was 0.00338 µM.

On to `Cc1cccc(C)c1-c1ccccc1SCCN(C)C`, for which affinity was put at a Ki of 1.43 µM.

Take `CN(C)CCSc1ccccc1-c1ccccc1`: affinity was put at a Ki of 0.553 µM.

Molecule `Cc1cccc(C)c1-c1cnnc(CCN(C)C)n1` registered a Ki greater than 10 µM.

On to `CN(C)CCSc1cccc(-c2ccoc2)n1`, for which the affinity corresponds to a Ki of 0.026 µM.

`CCCN(CCC)[C@H]1CCc2c(cccc2-c2cccc3ccccc23)C1` displayed an inhibition constant Ki of 0.0003 µM.

The molecule `CN(C)CCSc1ccccc1Br` returned an inhibition constant (Ki) of 4.11 µM.

`CN(C)CCOc1ccccc1Br` yielded a Ki of 2.66 µM.

`CCCN(CCC)[C@H]1CCc2c(cccc2-c2ccccc2)C1` came in with an inhibition constant Ki of 0.00291 µM.

On to `Cc1cccc(C)c1-c1ccc2c(c1)C[C@H](N(C)C)CO2`, for which the inhibition constant (Ki) was 0.0134 µM.

With `COc1cccc(OC)c1-c1cnnc(CCN(C)C)n1`, the inhibition constant Ki is greater than 10 µM.

Molecule `CN(C)CCSc1cccc(Br)n1` yielded an inhibition constant Ki of 0.037 µM.

In the case of `Cc1cccc(C)c1-c1cccc(SCCN(C)C)n1`, the inhibition constant (Ki) was determined as 0.128 µM.

Consider `COc1ccccc1-c1ccccc1OCCN(C)C`, for which the Ki was found to be 0.669 µM.

As for `COc1cccc(OC)c1-c1cccc2c1OC[C@H](N(C)C)C2`, the affinity corresponds to a Ki of 0.00255 µM.

Take `Cc1cccc(C)c1-c1cccc(OCCN(C)C)n1`: the Ki was 1.61 µM.

The molecule `CN(C)CCc1nncc(-c2ccccc2)n1` yielded an inhibition constant Ki greater than 10 µM.

On to `CN(C)CCOc1ccccc1-c1ccccc1`, for which the affinity, expressed as Ki, was 0.156 µM.

The target in a further test is T1, 5-hydroxytryptamine receptor 1A (Rattus norvegicus, UniProt P19327).
T1 sequence (P19327 whole entry): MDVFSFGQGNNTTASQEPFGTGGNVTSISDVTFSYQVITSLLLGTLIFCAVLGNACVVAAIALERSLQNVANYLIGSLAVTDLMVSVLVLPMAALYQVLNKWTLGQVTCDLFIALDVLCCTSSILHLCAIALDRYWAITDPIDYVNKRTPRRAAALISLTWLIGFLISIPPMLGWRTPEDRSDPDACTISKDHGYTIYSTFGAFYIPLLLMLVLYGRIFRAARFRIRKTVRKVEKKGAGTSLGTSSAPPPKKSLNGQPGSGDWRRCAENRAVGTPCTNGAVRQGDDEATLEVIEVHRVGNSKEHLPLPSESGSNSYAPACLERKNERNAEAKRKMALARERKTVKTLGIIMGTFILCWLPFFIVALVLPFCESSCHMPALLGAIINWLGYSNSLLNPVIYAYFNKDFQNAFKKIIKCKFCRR
Kind of test: Displacement of [3H]8-OH-DPAT from 5HT1A receptor in rat hippocampus. In kind it is tissue-based.
`CN(C)CCSc1cccc(-c2ccccc2)n1` yielded an inhibition constant (Ki) of 0.043 µM.

`CN(C)CCOc1cccc(Br)n1`: affinity was put at a Ki of 0.902 µM.

Molecule `CN(C)CCSc1cccc(-c2ccoc2)n1` gave a Ki of 0.028 µM.

`Cc1cccc(C)c1-c1cccc(SCCN(C)C)c1` had an inhibition constant (Ki) of 2.35 µM.

Consider `CN(C)CCSc1cccc(-c2ccccc2)c1`, for which the affinity corresponds to a Ki of 0.516 µM.

For the molecule `CN(C)CCSc1cccc(Br)n1`, the Ki was 0.133 µM.

With `Cc1cccc(C)c1-c1cccc(SCCN(C)C)n1`, the Ki is 0.927 µM.

The molecule `Cc1cccc(C)c1-c1cccc(OCCN(C)C)n1` displayed an inhibition constant (Ki) of 7.22 µM.

For `CN(C)CCSc1cccc(Br)c1`, the Ki turned out to be 0.676 µM.
